Data from paper PMC8804615, “Characterization and comparison of recombinant full‐length ursine and human sex hormone‐binding globulin” (FEBS Open Bio, 2021).

Legend:
ursine SHBG (uSHBG) = target: T1, ursine SHBG (uSHBG) (Ursus arctos, UniProt Z9D432XYQ2); test: competition with [3H]DHT, dextran-coated charcoal separation; format: binding; details: ~6 nM [3H]DHT; data not shown
T1 construct: homodimer ~93 kDa, glycosylated; 402 aa precursor

human SHBG (hSHBG) = target: T2, human SHBG (hSHBG) (Homo sapiens, UniProt P04278); test: as above; format: binding; details: ~6 nM [3H]DHT; data not shown
T2 construct: homodimer ~94 kDa, glycosylated
T2 sequence (P04278 30-402): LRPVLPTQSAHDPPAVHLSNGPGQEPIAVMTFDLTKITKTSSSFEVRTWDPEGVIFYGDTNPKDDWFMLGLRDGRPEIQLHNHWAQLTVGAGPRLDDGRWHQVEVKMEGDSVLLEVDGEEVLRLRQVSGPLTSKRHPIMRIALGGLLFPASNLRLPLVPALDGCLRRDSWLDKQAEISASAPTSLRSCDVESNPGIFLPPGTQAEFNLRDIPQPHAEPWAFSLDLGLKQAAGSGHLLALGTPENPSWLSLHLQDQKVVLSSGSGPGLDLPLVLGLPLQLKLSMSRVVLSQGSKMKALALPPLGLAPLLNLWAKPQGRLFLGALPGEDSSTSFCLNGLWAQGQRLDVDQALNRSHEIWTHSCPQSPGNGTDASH

[1] = target: recombinant full-length ursine sex hormone-binding globulin with a C-terminal FLAG tag (Ursus arctos (brown bear)); test: SEC-MALS; WYATT 30S5 SEC column, 20 mM Tris-HCl, 250 mM NaCl (for the ursine measurements), 1 mM CaCl2, 1 uM DHT, pH 8.0; about 10 ug SHBG injected; dimer
[2] = target: the molecule itself; test: SEC-MALS; WYATT 30S5 SEC column, 20 mM Tris-HCl, 150 mM NaCl, 1 mM CaCl2, 1 uM DHT, pH 8.0; about 10 ug SHBG injected; dimer
[3] = target: the molecule itself; test: SEC-MALS; native human serum SHBG; WYATT 30S5 SEC column, 20 mM Tris-HCl, 150 mM NaCl, 1 mM CaCl2, 1 uM DHT, pH 8.0; dimer

T1 sequence (Z9D432XYQ2 27-402 limits assumed): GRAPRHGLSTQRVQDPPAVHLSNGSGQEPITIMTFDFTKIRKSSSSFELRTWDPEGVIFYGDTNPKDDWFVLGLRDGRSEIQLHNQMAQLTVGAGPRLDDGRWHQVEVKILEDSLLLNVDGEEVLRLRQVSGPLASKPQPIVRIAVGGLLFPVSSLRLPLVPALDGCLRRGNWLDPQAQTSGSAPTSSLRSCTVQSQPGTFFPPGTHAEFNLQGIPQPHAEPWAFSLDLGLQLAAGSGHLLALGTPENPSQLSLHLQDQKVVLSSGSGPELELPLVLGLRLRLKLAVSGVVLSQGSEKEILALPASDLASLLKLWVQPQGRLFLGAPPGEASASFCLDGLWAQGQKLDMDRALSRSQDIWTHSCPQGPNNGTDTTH

C[C@]12CC[C@H](O)CC1=CC[C@@H]1[C@@H]2CC[C@]2(C)C(=O)CC[C@@H]12 [dehydroepiandrosterone]
RBA (DHT = 100%) (ursine SHBG (uSHBG)): < 1%
RBA (DHT = 100%) (human SHBG (hSHBG)): < 1%

C[C@]12CCC(=O)C=C1CC[C@@H]1[C@@H]2CC[C@@]2(C)[C@H]1CC[C@]2(O)C(=O)CO [11‐deoxycortisol]
RBA (DHT = 100%) (ursine SHBG (uSHBG)): < 1%
RBA (DHT = 100%) (human SHBG (hSHBG)): < 1%

CC(=O)[C@H]1CC[C@H]2[C@@H]3CCC4=CC(=O)CC[C@]4(C)[C@H]3CC[C@]12C [progesterone]
RBA (DHT = 100%) (ursine SHBG (uSHBG)): < 1%
RBA (DHT = 100%) (human SHBG (hSHBG)): < 1%

C[C@]12C[C@H](O)[C@H]3[C@@H](CCC4=CC(=O)CC[C@@]43C)[C@@H]1CC[C@@H]2C(=O)CO [corticosterone]
RBA (DHT = 100%) (ursine SHBG (uSHBG)): < 1%
RBA (DHT = 100%) (human SHBG (hSHBG)): < 1%

recombinant full-length ursine sex hormone-binding globulin with a C-terminal FLAG tag (natural protein)
stoichiometry N [1]: 2

C[C@]12CC[C@H]3[C@@H](CCC4=CC(=O)CC[C@@]43C)[C@@H]1CC[C@@H]2C(=O)CO [deoxycorticosterone]
RBA (DHT = 100%) (human SHBG (hSHBG)): < 1%

C[C@]12CCC(=O)C=C1CC[C@@H]1[C@@H]2CC[C@]2(C)C(=O)CC[C@@H]12 [androstenedione]
RBA (DHT = 100%) (ursine SHBG (uSHBG)): < 1%
RBA (DHT = 100%) (human SHBG (hSHBG)): < 1%

B1: recombinant full-length human sex hormone-binding globulin with a C-terminal FLAG tag (natural protein, UniProt P04278-1 30-402, looked up)
chain: T2 sequence (P04278 30-402)
modifications: glycosylated (insect cell glycans); disulfide Cys164-Cys188 verified by MALDI-ToF MS
notes: precursor of 402 residues expressed with its native signal peptide (29 residues, [residues removed]), which is cleaved on secretion; a second N-terminus one residue shorter (RPVLPTQ...) was also seen by MS. numbers count on: the mature protein; cDNA amplified from human liver total RNA; also called human SHBG; hSHBG; not shown: FLAG, C-terminal, kept
stoichiometry N [2]: 2

B2: native human serum SHBG (natural protein, UniProt P04278-1 30-402, looked up)
chain: T2 sequence (P04278 30-402)
notes: also called native serum SHBG; SHBG present in human serum
stoichiometry N [3]: 2
